# Measurements as given in patent publication US10208064B2, “Inhibitors of the renal outer medullary potassium channel” (MERCK SHARP & DOHME CORP., priority 2014, dated 2019).
# Target: ROMK (Kir1.1) channel (Homo sapiens (Human), UniProt P48048)
# Assay: Thallium Flux Assay
# Format: cell-based
# Protocol: The following Thallium Flux Assay was performed on each of the final product compounds in the Examples.
# A Thallium Flux Assay was performed on the compounds of the Examples. This assay has been described previously; see, e.g., PCT Published Application WO 2013/062900.
# Chain of ROMK (Kir1.1) channel (P48048 whole entry): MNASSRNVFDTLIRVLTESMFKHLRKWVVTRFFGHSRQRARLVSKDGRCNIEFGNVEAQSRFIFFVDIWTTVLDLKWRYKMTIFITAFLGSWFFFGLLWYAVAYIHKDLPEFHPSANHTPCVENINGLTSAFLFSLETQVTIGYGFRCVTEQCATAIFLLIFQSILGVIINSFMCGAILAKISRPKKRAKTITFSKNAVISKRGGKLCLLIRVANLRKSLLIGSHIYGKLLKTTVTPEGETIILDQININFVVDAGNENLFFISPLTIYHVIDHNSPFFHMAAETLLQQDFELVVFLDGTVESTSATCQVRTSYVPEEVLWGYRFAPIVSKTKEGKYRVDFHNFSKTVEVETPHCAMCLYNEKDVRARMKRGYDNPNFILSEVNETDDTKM
row,IC50,Compound
1,17 nM,"CC1=C(N2CCC3(CCN(C[C@H](O)c4ccc5c(c4C)Cn4nnnc4-5)CC3)C2=O)COC1=O [Example 23, (R)-8-(2-hydroxy-2-(6-methyl-5H-tetrazolo[5,1-a]isoindol-7-yl)ethyl)-2-(4-methyl-5-oxo-2,5-dihydrofuran-3-yl)-2,8-diazaspiro[4.5]decan-1-one]"
2,29 nM,"CC1=C(N2CCC3(CCN(C[C@@H](O)c4ccc5c(c4)[C@@H](C)n4nnnc4-5)CC3)C2=O)COC1=O [Example 27D, 8-((S)-2-hydroxy-2-((R)-5-methyl-5H-tetrazolo[5,1-a]isoindol-7-yl)ethyl)-2-(4-methyl-5-oxo-2,5-dihydrofuran-3-yl)-2,8-diazaspiro[4.5]decan-1-one]"
3,36 nM,"CC1=C(N2CCC3(CCN(C[C@H](O)c4ccc5c(c4)[C@@H](C)n4nnnc4-5)CC3)C2=O)COC1=O [Example 27C, 8-((R)-2-hydroxy-2-((R)-5-methyl-5H-tetrazolo[5,1-a]isoindol-7-yl)ethyl)-2-(4-methyl-5-oxo-2,5-dihydrofuran-3-yl)-2,8-diazaspiro[4.5]decan-1-one]"
4,18 nM,"CC1=C(N2CCC3(CCN(C(CO)c4ccc5c(ccc6nnnn65)c4)CC3)C2=O)COC1=O (racemic) [Example 28, 8-(2-hydroxy-1-(tetrazolo[1,5-a]quinolin-7-yl)ethyl)-2-(4-methyl-5-oxo-2,5-dihydrofuran-3-yl)-2,8-diazaspiro[4.5]decan-1-one]"
5,82 nM,"CC1=C(N2CCC3(CCN(C[C@@H](O)c4cc5c(cc4C4CC4)-c4nnnn4C5)CC3)C2=O)COC1=O [Example 26, (S)-8-(2-(8-cyclopropyl-5H-tetrazolo[5,1-a]isoindol-7-yl)-2-hydroxyethyl)-2-(4-methyl-5-oxo-2,5-dihydrofuran-3-yl)-2,8-diazaspiro[4.5]decan-1-one]"
6,27 nM,"CC1=C(N2CCC3(CCN(CC(O)c4ccc5c(c4)[C@@H](C)n4nnnc4-5)CC3)C2=O)COC1=O (stereo partly drawn) [Example 27B, 8-(2-hydroxy-2-((R)-5-methyl-5H-tetrazolo[5,1-α]isoindol-7-yl)ethyl)-2-(4-methyl-5-oxo-2,5-dihydrofuran-3-yl)-2,8-diazaspiro[4.5]decan-1-one]"
7,239 nM,"CO[C@@H](CN1CCC2(CC1)CCN(C1=C(C)C(=O)OC1)C2=O)c1ccc2c(c1)Cn1nnnc1-2 [Example 31, (R)-8-(2-methoxy-2-(5H-tetrazolo[5,1-a]isoindol-7-yl)ethyl)-2-(4-methyl-5-oxo-2,5-dihydrofuran-3-yl)-2,8-diazaspiro[4.5]decan-1-one]"
8,16 nM,"CC1=C(N2CCC3(CCN(C[C@@H](O)c4ccc5c(c4C)Cn4nnnc4-5)CC3)C2=O)COC1=O [Example 24, (S)-8-(2-hydroxy-2-(6-methyl-5H-tetrazolo[5,1-a]isoindol-7-yl)ethyl)-2-(4-methyl-5-oxo-2,5-dihydrofuran-3-yl)-2,8-diazaspiro[4.5]decan-1-one]"
9,87 nM,"CC1=C(N2CCC3(CCN(CC(O)c4ccc5c(c4)[C@H](C)n4nnnc4-5)CC3)C2=O)COC1=O (stereo partly drawn) [Example 27A, 8-(2-hydroxy-2-((S)-5-methyl-5H-tetrazolo[5,1-α]isoindol-7-yl)ethyl)-2-(4-methyl-5-oxo-2,5-dihydrofuran-3-yl)-2,8-diazaspiro[4.5]decan-1-one]"

# Continued, compound first:
row,Compound,IC50
1,"C[C@@H]1CC2(CCN(C[C@H](O)c3ccc4c(ccc5nnnn54)c3)CC2)C(=O)N1C1=CC(=O)OC1 [Example 16, (R)-8-((R)-2-hydroxy-2-(tetrazolo[1,5-a]quinolin-7-yl)ethyl)-3-methyl-2-(5-oxo-2,5-dihydrofuran-3-yl)-2,8-diazaspiro[4.5]decan-1-one]",32 nM
2,"C[C@H]1CC2(CCN(C[C@@H](O)c3ccc4c(ccc5nnnn54)c3)CC2)C(=O)N1C1=CC(=O)OC1 [Example 19, (S)-8-((S)-2-hydroxy-2-(tetrazolo[1,5-a]quinolin-7-yl)ethyl)-3-methyl-2-(5-oxo-2,5-dihydrofuran-3-yl)-2,8-diazaspiro[4.5]decan-1-one]",10 nM
3,"CC1=C(N2CC[C@@]3(CCN(C[C@H](O)c4ccc5c(c4)Cn4nnnc4-5)C[C@@H]3F)C2=O)COC1=O [Example 3, (5S,6R)-6-fluoro-8-((R)-2-hydroxy-2-(5H-tetrazolo[5,1-a]isoindol-7-yl)ethyl)-2-(4-methyl-5-oxo-2,5-dihydrofuran-3-yl)-2,8-diazaspiro[4.5]decan-1-one]",35 nM
4,"CC1=C(N2CCC3(CCN(C[C@@H](O)c4ccc5c(c4)Cn4nnnc4-5)CC3)C2=O)COC1=O [Example 9, (S)-8-(2-hydroxy-2-(5H-tetrazolo[5,1-a]isoindol-7-yl)ethyl)-2-(4-methyl-5-oxo-2,5-dihydrofuran-3-yl)-2,8-diazaspiro[4.5]decan-1-one]",19 nM
5,"C[C@@H]1CC2(CCN(C[C@H](O)c3ccc4c(c3)CCc3nnnn3-4)CC2)C(=O)N1C1=CC(=O)OC1 [Example 12, (R)-8-((R)-2-(4,5-dihydrotetrazolo[1,5-a]quinolin-7-yl)-2-hydroxyethyl)-3-methyl-2-(5-oxo-2,5-dihydrofuran-3-yl)-2,8-diazaspiro[4.5]decan-1-one]",188 nM
6,"CC1=C(N2CCC3(CCN(C[C@H](O)c4ccc5c(c4Cl)Cn4nnnc4-5)CC3)C2=O)COC1=O [Example 1, (R)-8-(2-(6-chloro-5H-tetrazolo[5,1-a]isoindol-7-yl)-2-hydroxyethyl)-2-(4-methyl-5-oxo-2,5-dihydrofuran-3-yl)-2,8-diazaspiro[4.5]decan-1-one]",31 nM
7,"CC1=C(N2CCC3(CCN(C[C@@H](O)c4ccc5c(c4)CCc4nnnn4-5)CC3)C2=O)COC1=O [Example 7B, (S)-8-(2-(4,5-dihydrotetrazolo[1,5-a]quinolin-7-yl)-2-hydroxyethyl)-2-(4-methyl-5-oxo-2,5-dihydrofuran-3-yl)-2,8-diazaspiro[4.5]decan-1-one]",38 nM
8,"CC1=C(N2CC[C@]3(CCN(C[C@H](O)c4ccc5c(c4)Cn4nnnc4-5)C[C@H]3F)C2=O)COC1=O [Example 4, (5R,6S)-6-fluoro-8-((R)-2-hydroxy-2-(5H-tetrazolo[5,1-a]isoindol-7-yl)ethyl)-2-(4-methyl-5-oxo-2,5-dihydrofuran-3-yl)-2,8-diazaspiro[4.5]decan-1-one]",43 nM
9,"CC1=C(N2CC[C@]3(CCN(C[C@@H](O)c4ccc5c(c4)Cn4nnnc4-5)C[C@H]3F)C2=O)COC1=O [Example 6, (5R,6S)-6-fluoro-8-((S)-2-hydroxy-2-(5H-tetrazolo[5,1-a]isoindol-7-yl)ethyl)-2-(4-methyl-5-oxo-2,5-dihydrofuran-3-yl)-2,8-diazaspiro[4.5]decan-1-one]",40 nM
10,"C[C@H]1CC2(CCN(C[C@H](O)c3ccc4c(c3)CCc3nnnn3-4)CC2)C(=O)N1C1=CC(=O)OC1 [Example 13, (S)-8-((R)-2-(4,5-dihydrotetrazolo[1,5-a]quinolin-7-yl)-2-hydroxyethyl)-3-methyl-2-(5-oxo-2,5-dihydrofuran-3-yl)-2,8-diazaspiro[4.5]decan-1-one]",23 nM
11,"C[C@H]1CC2(CCN(C[C@@H](O)c3ccc4c(c3)CCc3nnnn3-4)CC2)C(=O)N1C1=CC(=O)OC1 [Example 15, (S)-8-((S)-2-(4,5-dihydrotetrazolo[1,5-a]quinolin-7-yl)-2-hydroxyethyl)-3-methyl-2-(5-oxo-2,5-dihydrofuran-3-yl)-2,8-diazaspiro[4.5]decan-1-one]",14 nM
12,"CC1=C(N2CCC3(CCN(C[C@@H](O)c4ccc5c(c4C)CCc4nnnn4-5)CC3)C2=O)COC1=O [Example 11, (S)-8-(2-hydroxy-2-(6-methyl-4,5-dihydrotetrazolo[1,5-a]quinolin-7-yl)ethyl)-2-(4-methyl-5-oxo-2,5-dihydrofuran-3-yl)-2,8-diazaspiro[4.5]decan-1-one]",47 nM
13,"CC1=C(N2CCC3(CCN(C[C@@H](O)c4ccc5c(ccc6nnnn65)c4)CC3)C2=O)COC1=O [Example 21, (S)-8-(2-hydroxy-2-(tetrazolo[1,5-a]quinolin-7-yl)ethyl)-2-(4-methyl-5-oxo-2,5-dihydrofuran-3-yl)-2,8-diazaspiro[4.5]decan-1-one]",19 nM
14,"CC1=C(N2CCC3(CCN(C[C@@H](O)c4ccc5c(c4Cl)Cn4nnnc4-5)CC3)C2=O)COC1=O [Example 2, (S)-8-(2-(6-chloro-5H-tetrazolo[5,1-a]isoindol-7-yl)-2-hydroxyethyl)-2-(4-methyl-5-oxo-2,5-dihydrofuran-3-yl)-2,8-diazaspiro[4.5]decan-1-one]",9 nM
15,"CC1=C(N2CCC3(CCN(C[C@@H](O)c4ccc5c(ccc6nnnn65)n4)CC3)C2=O)COC1=O [Example 22, (R)-8-(2-hydroxy-2-(tetrazolo[1,5-a][1,5]naphthyridin-7-yl)ethyl)-2-(4-methyl-5-oxo-2,5-dihydrofuran-3-yl)-2,8-diazaspiro[4.5]decan-1-one]",185 nM
16,"C[C@@H]1CC2(CCN(C[C@@H](O)c3ccc4c(ccc5nnnn54)c3)CC2)C(=O)N1C1=CC(=O)OC1 [Example 18, (R)-8-((S)-2-hydroxy-2-(tetrazolo[1,5-a]quinolin-7-yl)ethyl)-3-methyl-2-(5-oxo-2,5-dihydrofuran-3-yl)-2,8-diazaspiro[4.5]decan-1-one]",7 nM
17,"CC1=C(N2CCC3(CCN(C[C@H](O)c4ccc5c(ccc6nnnn65)c4)CC3)C2=O)COC1=O [Example 20, (R)-8-(2-hydroxy-2-(tetrazolo[1,5-a]quinolin-7-yl)ethyl)-2-(4-methyl-5-oxo-2,5-dihydrofuran-3-yl)-2,8-diazaspiro[4.5]decan-1-one]",11 nM
18,"CC1=C(N2CC[C@@]3(CCN(C[C@@H](O)c4ccc5c(c4)Cn4nnnc4-5)C[C@@H]3F)C2=O)COC1=O [Example 5, (5S,6R)-6-fluoro-8-((S)-2-hydroxy-2-(5H-tetrazolo[5,1-a]isoindol-7-yl)ethyl)-2-(4-methyl-5-oxo-2,5-dihydrofuran-3-yl)-2,8-diazaspiro[4.5]decan-1-one]",111 nM
19,"CC1=C(N2CCC3(CCN(C[C@H](O)c4ccc5c(c4)CCc4nnnn4-5)CC3)C2=O)COC1=O [Example 7A, (R)-8-(2-(4,5-dihydrotetrazolo[1,5-a]quinolin-7-yl)-2-hydroxyethyl)-2-(4-methyl-5-oxo-2,5-dihydrofuran-3-yl)-2,8-diazaspiro[4.5]decan-1-one]",34 nM
